In patent publication US10800788B2, “4-(aryl)-N-(3-alkoxyfuro[2,3-b]pyrazin-2-yl)-piperazine-1-carboxamide derivative and antiproliferative effect thereof” (Dongguk University Industry-Academic Cooperation Foundation, priority 2016, dated 2020):
Where two headings read alike, the source gives them in different places.

Columns and labels:
[1] = test system: HN31 (head and neck cancer) cell line; test: Cell growth inhibition experiment (SRB), HN31; format: cell-based, human; details: 96 hours incubation
Method: (§1) The cell lines below were used in order to confirm the efficacy of the compounds synthesized in Examples 1 to 60. Human PANC-1 (pancreatic cancer) and MDA-MB-231 (breast cancer) cell lines were obtained from the American Type Culture Collection (ATCC; Manassas, Va.); and HN31 (head and neck cancer) and UMRC2 (kidney cancer) cell lines were secured from the United States National Institutes of Health (Bethesda, Md.). The MDA-MB-231, UMRC2, HN31, and PANC-1 cell lines were cultured in Dulbecco modified Eagle medium (DMEM; Invitrogen, Carlsbad, Calif.) containing FBS (10%), HEPES (10 mM), penicillin (100 U/mL), and streptomycin (100 μg/mL). All cell lines were cultured in an incubator (37° C., 5% CO2).
(§2) The 4-(aryl)-N-(3-alkoxyfuro[2,3-b]pyrazin-2-yl)-piperazine-1-carboxamide derivative compounds synthesized according to Examples 1 to 60 of the present invention were treated with various human tissue-derived cancer cell lines cultured according to Experimental Example 1, and thus the inhibitory effect of the growth of human cancer cells was confirmed. The cell growth inhibition experiment was conducted using the sulforhodamine B (SRB) technique (Skehan et al., J. National Cancer Institute, 1990, 82: 1107-1112). Specifically, each cell line was seeded in a 96-well plate at a density of 2 to 3×10^3 cells/well, cultured overnight, and then treated with the 4-(aryl)-N-(3-alkoxyfuro[2,3-b]pyrazin-2-yl)-piperazine-1-carboxamide derivative compounds of the present invention. The experiment was repeated 3 times for each compound. Cells treated with each compound were additionally incubated for 96 hours, fixed with 10% trichloroacetic acid (TCA), and then left at 4° C. for 1 hour. The resultant was washed 3 times with distilled water. Thereafter, each cell was treated with 0.4% sulforhodamine B dissolved in 1% acetic acid, stained for 30 minutes, and then washed 4 times with 1% acetic acid. The resultant was dried in the air. After shaking the resultant in Tris solution (10 mM) for 5 minutes, the absorbance was measured at 530 nm using a Benchmark Plus Microplate reader (Bio-Rad Laboratories, Hercules, Calif.).
(§3) In order to convert the OD530 value to the number of viable cells per each well, the measured OD530 value was compared to the standard OD530-vs.-cell number curve of each cell line. The percent survival was calculated using the following formula: % survival=Nlive cells(test)/Nlive cells(control)×100

[2] = test system: PANC-1 (pancreatic cancer) cell line; test: Cell growth inhibition experiment (SRB), PANC-1; format: cell-based; details: Homo sapiens, PANC-1, 96 h, 96 hours incubation
Method: as §1, §2, §3

SK-OV-3 = test: Cell growth inhibition experiment (SRB), SK-OV-3; format: cell-based, human; details: 96 hours incubation, read-out: IC50 (μM) for cancer cell line SK-OV-3
Method: as §2, §3

[3] = test system: UMRC2 (kidney cancer) cell line; test: Cell growth inhibition experiment (SRB), UMRC2; format: cell-based, human; details: 96 hours incubation
Method: as §1, §2, §3

HUVEC = test: Cell growth inhibition experiment (SRB), HUVEC; format: cell-based, human; details: 96 hours incubation, read-out: IC50 (μM) […]
Method: as §2, §3

HEK293 = test: Cell growth inhibition experiment (SRB), HEK293; format: cell-based, human; details: 96 hours incubation, read-out: IC50 (μM) for cancer cell line HEK293
Method: as §2, §3

HT29 = test: Cell growth inhibition experiment (SRB), HT29; format: cell-based, human; details: 96 hours incubation, read-out: IC50 (μM) for cancer cell line HT29
Method: as §2, §3

A549 = test: Cell growth inhibition experiment (SRB), A549; format: cell-based; details: Homo sapiens, A549, 96 h, 96 hours incubation, read-out: IC50 (μM) for cancer cell line A549
Method: as §2, §3

[4] = test system: MDA-MB-231 (breast cancer) cell line; test: Cell growth inhibition experiment (SRB), MDA-MB-231; format: cell-based, human; details: 96 hours incubation
Method: as §1, §2, §3

| Compound | IC50 ([1]; Homo sapiens, 96 h) [µM] | IC50 [2] [µM] | IC50 (SK-OV-3; Homo sapiens, SK-OV-3, 96 h) [µM] | IC50 ([3]; Homo sapiens, UMRC2, 96 h) [µM] | IC50 (HUVEC; Homo sapiens, HUVEC, 96 h) [µM] | IC50 (HEK293; Homo sapiens, HEK293, 96 h) [µM] | IC50 (HT29; Homo sapiens, HT-29, 96 h) [µM] | IC50 (A549) [µM] | IC50 ([4]; Homo sapiens, MDA-MB-231, 96 h) [µM] | IC50 [1] [µM] | IC50 (SK-OV-3) [µM] | IC50 [3] [µM] | IC50 (HUVEC) [µM] | IC50 (HEK293) [µM] | IC50 (HT29) [µM] | IC50 [4] [µM] |
| --- | --- | --- | --- | --- | --- | --- | --- | --- | --- | --- | --- | --- | --- | --- | --- | --- |
| CCOc1nc2oc(C)cc2nc1NC(=O)N1CCN(c2cc(F)cc(OC)c2)CC1 [Example 33, N-(3-Ethoxy-6-methylfuro[2,3-b]pyrazin-2-yl)-4-(3-fluoro-5-methoxyphenyl)piperazine-1-carboxamide] | 0.31 | 0.24 | < 2.5 | 0.21 | < 2.5 | 0.51 | < 2.5 | 0.41 | 0.15 |  |  |  |  |  |  |  |
| COc1cc(C)cc(N2CCN(C(=O)Nc3nc4ccoc4nc3OC)CC2)c1 [Example 2, 4-(3-Methoxy-5-methylphenyl)-N-(3-methoxyfuro[2,3-b]pyrazin-2-yl)piperazine-1-carboxamide] | 0.49 | 0.45 | 0.82 | 0.38 | 0.91 | 1.93 | 0.62 | 0.23 | 0.26 |  |  |  |  |  |  |  |
| CCOc1nc2oc(Cl)cc2nc1NC(=O)N1CCN(c2cc(F)cc(OC)c2)CC1 [Example 53, N-(6-Chloro-3-ethoxyfuro[2,3-b]pyrazin-2-yl)-4-(3-fluoro-5-methoxyphenyl)piperazine-1-carboxamide] | 0.45 | 0.56 | 1.91 | 0.32 | 1.88 | 1.98 | 1.67 | 1.68 | 0.48 |  |  |  |  |  |  |  |
| CCOc1nc2oc(C)cc2nc1NC(=O)N1CCN(c2cc(C)cc(F)c2)CC1 [Example 36, N-(3-Ethoxy-6-methylfuro[2,3-b]pyrazin-2-yl)-4-(3-fluoro-5-methylphenyl)piperazine-1-carboxamide] | 0.36 | 0.12 | 1.12 | 0.36 | 1.12 | 1.32 | 1.12 | 1.32 | 0.45 |  |  |  |  |  |  |  |
| CCOc1nc2oc(Cl)cc2nc1NC(=O)N1CCN(c2cc(F)cc(F)c2)CC1 [Example 57, N-(6-Chloro-3-ethoxyfuro[2,3-b]pyrazin-2-yl)-4-(3,5-difluorophenyl)piperazine-1-carboxamide] | < 2.5 | < 2.5 | < 2.5 | < 2.5 | < 2.5 | < 2.5 | < 2.5 | < 2.5 | < 2.5 |  |  |  |  |  |  |  |
| CCOc1nc2occc2nc1NC(=O)N1CCN(c2cc(F)cc(OC)c2)CC1 [Example 13, N-(3-Ethoxyfuro[2,3-b]pyrazin-2-yl)-4-(3-fluoro-5-methoxyphenyl)piperazine-1-carboxamide] | 0.72 | 0.65 | < 2.5 | 0.26 | < 2.5 | < 2.5 | < 2.5 | < 2.5 | 0.16 |  |  |  |  |  |  |  |
| COc1nc2oc(Cl)cc2nc1NC(=O)N1CCN(c2cc(F)cc(F)c2)CC1 [Example 47, N-(6-Chloro-3-methoxyfuro[2,3-b]pyrazin-2-yl)-4-(3,5-difluorophenyl)piperazine-1-carboxamide] | 0.68 | 0.41 | 1.93 | 0.68 | 1.87 | 0.63 | 1.92 | 0.57 | 0.43 |  |  |  |  |  |  |  |
| COc1cc(OCCN(C)C)cc(N2CCN(C(=O)Nc3nc4cc(Cl)oc4nc3OC)CC2)c1 [Example 44, N-(6-Chloro-3-methoxyfuro[2,3-b]pyrazin-2-yl)-4-(3-(2-(dimethylamino)ethoxy)-5-methoxyphenyl)piperazine-1-carboxamide] | 0.53 | 0.61 | < 2.5 | 0.38 | 0.66 | 0.71 | 0.87 | 0.36 | 0.43 |  |  |  |  |  |  |  |
| CCOc1nc2occc2nc1NC(=O)N1CCN(c2cc(C)cc(F)c2)CC1 [Example 16, N-(3-Ethoxyfuro[2,3-b]pyrazin-2-yl)-4-(3-fluoro-5-methylphenyl)piperazine-1-carboxamide] | < 2.5 | < 2.5 | < 2.5 | 0.44 | < 2.5 | < 2.5 | < 2.5 | < 2.5 | 0.24 |  |  |  |  |  |  |  |
| CCOc1nc2oc(Cl)cc2nc1NC(=O)N1CCN(c2cc(C(F)(F)F)cc(C(F)(F)F)c2)CC1 [Example 59, 4-(3,5-Bis(trifluoromethyl)phenyl)-N-(6-chloro-3-ethoxyfuro[2,3-b]pyrazin-2-yl)piperazine-1-carboxamide] | < 2.5 | 1.98 | < 2.5 | 1.87 | < 2.5 | < 2.5 | < 2.5 | < 2.5 | 1.68 |  |  |  |  |  |  |  |
| COc1nc2oc(C)cc2nc1NC(=O)N1CCN(c2cccc(OC(F)(F)F)c2)CC1 [Example 30, N-(3-Methoxy-6-methylfuro[2,3-b]pyrazin-2-yl)-4-(3-(trifluoromethoxy)phenyl)piperazine-1-carboxamide] | 1.32 | 0.54 | 1.12 | 0.63 | 1.12 | 0.58 | 1.12 | 0.25 | 0.68 |  |  |  |  |  |  |  |
| COc1cc(F)cc(N2CCN(C(=O)Nc3nc4cc(Cl)oc4nc3OC)CC2)c1 [Example 43, N-(6-Chloro-3-methoxyfuro[2,3-b]pyrazin-2-yl)-4-(3-fluoro-5-methoxyphenyl)piperazine-1-carboxamide] | 0.68 |  | 2.13 | 0.32 | 1.77 | 1.32 | 1.59 |  | 0.21 | 0.57 | < 2.5 | 0.36 | < 2.5 | < 2.5 | < 2.5 | 0.12 |
